Read-outs that look alike come from different tables or passages of the source.
What was measured:
[1] = Study 200912: single dose 100-200 mg, SDD versus nonmicronized API PiB, healthy subjects; assay type: in vivo, human; conditions: for Cmax / AUC / half-life / Tmax / concentration at 24 h: human, plasma, oral; for Cmax / AUC / half-life / Tmax / concentration at 24 h / CL/F: fasted; for Cmax / AUC / half-life / CL/F: geometric mean (95% CI); for AUC: read-out: AUC(0‐∞); for half-life: read-out: t½ (converted); for Tmax / concentration at 24 h: median (range); for concentration at 24 h: read-out: C24
Source text: This was a double‐blind, randomized, placebo‐controlled, single‐dose escalation study to investigate the safety, tolerability, and PK of higher single doses of GSK2838232 (Part A) and to evaluate the relative bioavailability of the SDD and crystalline Active Pharmaceutical Ingredient (API) of GSK2838232 (Part B) in healthy subjects dosed as PiB.
Part A was originally planned as a double‐blind, randomized, placebo‐controlled, 4‐period, single‐dose escalation design. Subjects were randomized 3:1 to receive GSK2838232 or placebo. Periods 1 and 2 investigated dosing with 200 mg SDD or nonmicronized API. Further planned dosing of RTV‐boosted single doses of 20 mg and 50 mg SDD was not performed due to early termination of the study to evaluate a serious adverse event (SAE) of a cardiovascular nature (see Safety discussion).
Part B was conducted in a separate group of subjects and was not dependent on the results of Part A. This was a randomized, open‐label, 3‐period, crossover design to assess the relative bioavailability of the nonmicronized API PiB versus the original SDD formulation at a 100 mg dose level (Periods 1 and 2). […] Subjects were randomized 1:1 to each dosing sequence.
Blood samples were taken via an indwelling cannula or by direct venipuncture, collected into a di‐potassium ethylenediaminetetraacetic acid (K2 EDTA) tube, and placed on wet ice. Samples were centrifuged at approximately 1500g for 10 minutes at approximately 4°C. Exactly 500 μL of the resulting plasma was transferred into labeled 1.4 mL Matrix TrakMate Tubes containing exactly 500 μL of 50 mmol/L citrate buffer, pH 4.0, and mixed well. When 500 μL of plasma was not able to be transferred, the ratio of plasma to citrate buffer was kept at 1:1. Buffered plasma samples were kept on ice and frozen at −70°C within 1 hour of collection. Plasma samples were analyzed for GSK2838232 using a validated analytical method based on protein precipitation, followed by high performance liquid chromatography with tandem mass spectrometry (HPLC/MS/MS) analysis.
Extracts were analyzed using HPLC (Shimadzu, Nexera, 30 series) and tandem mass spectrometry detection (HPLC‐MS/MS). The mass spectrometer used was an API‐5500 using IonSpray interface (500 V) in positive mode monitoring. The mass transitions were 809.5 to 255.1 and 816.5 to 262.1 for GSK2838232 and [2H7] GSK2838232 (the isotopically labeled internal standard), respectively. The chromatographic conditions utilized a Waters Acquity UPLC BEH C18 column (50 × 2.1 mm, 1.7 μm) with mobile phases consisting of 1 mmol/L ammonium formate:formic acid (100:0.005) (mobile phase A) and acetonitrile:formic acid (100:0.1) (mobile phase B) at a flow rate of 0.6 mL/min, with pump B at 63% held for 2 minutes. The assay was validated to have precision (%RSD) of 0.7%‐6.5% (within‐run) and 1.0%‐5.9% RSD (between‐run) and with accuracy (%bias) of 0.0%‐1.6%. […] The lower limit of quantification (LLQ) was 0.5 ng/mL, using a 50 μL aliquot of K2EDTA acidified plasma. The higher limit of quantification (HLQ) was 500 ng/mL.
The PK parameters were calculated by standard noncompartmental analysis based on actual sampling times using WinNonlin Version 6.3 or higher. Estimation of AUC used the linear up/log down trapezoidal rule.

[2] = preclinical; cited from earlier work
[3] = 20 mg, single 20 mg API PiB, with ritonavir (predosing 10 days), Study 200912
[4] = 100 mg, single 100 mg API PiB, without ritonavir, Study 200912
[5] = 100 mg, single 100 mg SDD PiB, without ritonavir, Study 200912
[6] = 200 mg, single 200 mg API PiB, without ritonavir, Study 200912
[7] = 200 mg, single 200 mg SDD PiB, without ritonavir, Study 200912

CC(C)C1=C2[C@H]3CC[C@@H]4[C@@]5(C)CC[C@H](OC(=O)CC(C)(C)C(=O)O)C(C)(C)[C@@H]5CC[C@@]4(C)[C@]3(C)CC[C@@]2([C@@H](O)CN(CCN(C)C)Cc2ccc(Cl)cc2)CC1=O [GSK2838232]
dose proportionality of exposure ([1]; API, 100 mg to 200 mg single doses, Study 200912): proportional increase in exposure
Cmax [1, 3]: 4.89 ng/mL
AUC [1, 3]: 224 ng·h/mL
half-life [1, 3]: 41.1 h
Tmax [1, 3]: 5.01 h
concentration at 24 h [1, 3]: 2.56 ng/mL
Cmax [1, 4]: 6.15 ng/mL
AUC [1, 4]: 91.7 ng·h/mL
half-life [1, 4]: 12.5 h
Tmax [1, 4]: 3.64 h
concentration at 24 h [1, 4]: 2.02 ng/mL
Cmax [1, 5]: 18.7 ng/mL
AUC [1, 5]: 265 ng·h/mL
half-life [1, 5]: 16.9 h
Tmax [1, 5]: 2.75 h
concentration at 24 h [1, 5]: 3.87 ng/mL
Cmax [1, 6]: 13.6 ng/mL
AUC [1, 6]: 189 ng·h/mL
half-life [1, 6]: 15.9 h
Tmax [1, 6]: 2.76 h
concentration at 24 h [1, 6]: 2.85 ng/mL
Cmax [1, 7]: 29.3 ng/mL
AUC [1, 7]: 381 ng·h/mL
half-life [1, 7]: 16.6 h
Tmax [1, 7]: 1.75 h
concentration at 24 h [1, 7]: 5.18 ng/mL
CL/F ([1]; single 20 mg API PiB, with ritonavir (predosing 10 days), Study 200912): 89.2 (63.3, 126) L/h
CL/F ([1]; single 100 mg API PiB, without ritonavir, Study 200912): 1090 (670, 1774) L/h
CL/F ([1]; single 100 mg SDD PiB, without ritonavir, Study 200912): 378 (256, 559) L/h
CL/F ([1]; single 200 mg API PiB, without ritonavir, Study 200912): 1060 (686, 1638) L/h
CL/F ([1]; single 200 mg SDD PiB, without ritonavir, Study 200912): 525 (399, 690) L/h
dose proportionality of exposure ([1]; single doses 100 mg to 200 mg, SDD formulation, without RTV): less‐than‐proportional increase
metabolism pathways [2]: Phase I oxidation (primarily by cytochrome P450 [CYP] 3A4) and Phase II glucuronidation
urinary excretion of drug‐related material [2]: ≤ 1 % administered dose

— article PMC5989765, “The safety, tolerability, and pharmacokinetic profile of GSK2838232, a novel 2nd generation HIV maturation inhibitor, as assessed in healthy subjects” (Pharmacology Research & Perspectives, 2018)
